Reference: US20250114383A1, “ADMINISTRATION OF A P[…] BY I[…]” (RESET PHARMACEUTICALS, INC., priority 2022, published 2025)

Assays:
[1] = Two-compartment IV PK model fitted to published human bolus psilocybin IV data; conditions: psilocin after 1 mg psilocybin IV, fitted estimate
Procedure: All analysis was performed using the software R and RStudio, with models being defined using analytical and ODE solutions.
Systemic PK parameters were derived for published human bolus psilocybin IV data and human infusion simulations were performed over a range of doses to identify infusion regimens that achieved the target profile.
Human IV PK data for psilocin after psilocybin was administered was taken from Hasler et al. “Determination of psilocin and 4-hydroxyindole-3-acetic acid in plasma by HPLC-ECD and pharmacokinetic profiles of oral and intravenous psilocybin in man”. Pharm Acta Helv. 1997 June; 72(3):175-84. Model selection was performed by assessing visual fit to data and the respective model AIC's of a one compartment and two compartment IV PK model. These systemic human PK parameters were then used for human infusion simulations by simulating the PK profiles over a range of doses. The effect of two infusion rates, a faster followed by slower infusion rate was also investigated.
Pharm Acta Helv. 1997 June; 72(3):175-84. It is assumed that the generation of psilocin is instantaneous and complete once psilocybin is absorbed.
An IV two compartment model best described the IV data from FIG. 2. A two-compartment model gave a good description of the raw data capturing the Cmax and terminal phase well, FIG. 3. […]

[2] = Solubility assessment in excipients and vehicles; assay type: physicochemical

SMILES	k12 [1]	k21 [1]	solubility ([2]; in DMSO and NMP)	solubility as a function of pH ([2]; initial trials, 30 mg/g in aqueous vehicles)	solubility ([2]; non-micronised, in all the excipients tested)
CN(C)CCc1c[nH]c2cccc(O)c12 [psilocin, 4-hydroxy-N,N-dimethyltryptamine]	0.176 min⁻¹	0.0489 min⁻¹	good solubility	higher solubility at acidic pH	
CN(C)CCc1c[nH]c2cccc(OP(=O)(O)O)c12 [psilocybin, [3-(2-dimethylaminoethyl)-1H-indol-4-yl]dihydrogen phosphate]					poor solubility
